Here are results for eight compounds from PubChem BioAssay AID1919006 (Molecular Pharmacology Branch, DTP, NCI, 2023).

The subject of this assay is 885512-296-R-J2-PDC complex spheroid growth, % test/control. The assay is described as follows: Anticancer human tumor 885512-296-R-J2-PDC patient-derived breast carcinoma cell line growth inhibition [AhR]. Particulars: for viability, T/C: stronger effect = lower value. From the text:
Multicellular complex tumor spheroid response to aryl hydrocarbon receptor antagonists in combination with a variety of drugs and investigational agents in selected tumor cell lines
The current study was undertaken to assess response to aryl hydrocarbon receptor antagonists in combination with standard-of-care drugs and investigational agents in solid tumor complex spheroid models. Complex spheroids include a stromal component modeled by human endothelial cells (HUVEC) and fibroblasts modeled by human mesenchymal stem cells (MSCs). The concentration ranges selected for each drug and investigational agent were based upon clinically achievable concentrations if the clinical Cmax of the agent was known.
Compounds. The drugs and investigational agents: BAY 2416964 (NSC825713), GNF351 (NSC835774), CH-223191 (NSC835775), CPI-455 (NSC825282), aza-TdCyd (NSC777586), decitabine (NSC127716), belinostat (NSC758774), entinostat (NSC756642), pevonedistat (NSC761192), tazemetostat (NSC777109), talazoparib (NSC765396), olaparib (NSC753686), selinexor (NSC780203), nedisertib (M3814, NSC802822), bortezomib (NSC756655), venetoclax (NSC766270), doxorubicin (NSC123127), elimusertib (BAY189344, NSC800525), ceralasertib (AZD6738, NSC777638), TAK-243 (NSC785004), alisertib (NSC759677), etoposide (NSC141540), topotecan (NSC609699), eribulin (NSC707389), gemcitabine (NSC613327), carboplatin (NSC241240), cisplatin (NSC119875), and SN-38 (NSC673596) were obtained from the National Cancer Institute (NCI) Developmental Therapeutics Program Chemical Repository (32). The FDA-approved anticancer drug set is available from the Developmental Therapeutics Program at https://dtp.cancer.gov/organization/dscb/obtaining/available plates.htm. […] The stock solutions were prepared in dimethyl sulfoxide (DMSO, Sigma-Aldrich, St. Louis, MO, cat. D2650), except for the platinum compounds which were prepared in saline (Quality Biological, Gaithersburg, MD, cat. 114-055-101), at 800-fold the tested concentration and stored at -70 degrees C prior to their use. All drugs and investigational agents were tested over a range starting from a high concentration at or near the clinical Cmax and decreasing in half-log increments. If the clinical Cmax for an agent had not been determined, the highest concentration tested was 10 microM (Table 1).
Cell Culture. All cells were maintained in an incubator at 37 degrees C and 5% CO2 with 95% humidity. The PDC lines were cultured according to standard operating procedures established by the NCI PDMR (https://pdmr.cancer.gov). Briefly, all PDCs were thawed and cultured in Matrigel-coated flasks prepared with a working solution of 1X Ham's F-12 nutrient mix, without supplementation (Invitrogen, Waltham, MA, cat. 11765054), 100 U/mL penicillin-streptomycin (Invitrogen, cat. 15140122), and 2.5% Matrigel (Corning Inc., Corning, NY, cat. 354248) for the first three passages. All PDCs were cultured in complete DMEM/F-12 media containing advanced DMEM/F-12 (Invitrogen, cat. 12634028), 4.9% defined fetal bovine serum, heat inactivated (HyClone Laboratories Inc., Logan, UT, cat. SH30070.03HI), 389 ng/mL hydrocortisone (Sigma-Aldrich, cat. H4001), 9.7 ng/mL human EGF recombinant protein (Invitrogen, cat. PHG0313), 23.4 microg/mL adenine (Sigma-Aldrich, cat. A2786), 97.3 U/mL penicillin-streptomycin (Invitrogen, cat. 15140122), 1.9 mM L-glutamine (Invitrogen, cat. 25030081), and 9.7 microM Y-27632 dihydrochloride (Tocris Bioscience, Bristol, United Kingdom, cat. 1254). The PDCs were cultured in complete DMEM/F12 media without 10 microM Y-27632 dihydrochloride for at least two passages prior to the screen. The established cell lines NCI-H1341 and […] were cultured in DMEM/F-12, HEPES (Invitrogen, cat. 11330032), 5% defined fetal bovine serum (HyClone Laboratories Inc., cat. SH30070.03), ITS premix universal culture supplement [insulin (5 microg/mL), transferrin (5 microg/mL), and selenious acid (5 ng/mL)] […]

The mark [1] stands for this setting: curve of first compound, second compound 0.1 µM.
Where [2] appears, read: curve of first compound, second compound 0.316 µM.
[3] abbreviates: curve of first compound, second compound 1 µM.
The mark [4] stands for this setting: curve of first compound, second compound 3.16 µM.
[5] abbreviates: curve of first compound, second compound 10 µM.
The mark [6] stands for this setting: second compound 0.1 µM, first compound 0.0316 µM.
The mark [7] stands for this setting: second compound 0.1 µM, first compound 0.1 µM.
Where [8] appears, read: second compound 0.1 µM, first compound 0.316 µM.
[9] abbreviates: second compound 0.1 µM, first compound 1 µM.
[10] abbreviates: second compound 0.316 µM, first compound 0.0316 µM.
Setting [11] is: second compound 0.316 µM, first compound 0.1 µM.
[12] abbreviates: second compound 0.316 µM, first compound 0.316 µM.
The mark [13] stands for this setting: second compound 0.316 µM, first compound 1 µM.
Setting [14] is: second compound 1 µM, first compound 0.0316 µM.
[15] abbreviates: second compound 1 µM, first compound 0.1 µM.
Setting [16] is: second compound 1 µM, first compound 0.316 µM.
Setting [17] is: second compound 1 µM, first compound 1 µM.
Where [18] appears, read: second compound 3.16 µM, first compound 0.0316 µM.
Setting [19] is: second compound 3.16 µM, first compound 0.1 µM.
Where [20] appears, read: second compound 3.16 µM, first compound 0.316 µM.
Setting [21] is: second compound 3.16 µM, first compound 1 µM.
Setting [22] is: second compound 10 µM, first compound 0.0316 µM.
The mark [23] stands for this setting: second compound 10 µM, first compound 0.1 µM.
The mark [24] stands for this setting: second compound 10 µM, first compound 0.316 µM.
Where [25] appears, read: second compound 10 µM, first compound 1 µM.

pIC50: −log10 of the molar value. Where “and” joins values, the source holds several entries; their conditions need not be identical. Identical values can stand only once.
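Further: spheroids exposed to compounds for seven days.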

Broadly, the viability, T/C is the result in the treated group divided by that in the control group, in per cent. One may read the pIC50 as −log10 of the IC50, conventionally taken in molar units. For `CC(C)c1c(-c2ccccc2)nc2c(C#N)c[nH]n2c1=O`, the viability, T/C reads like this: (compound 0.0316 µM) 93.1% and 105% and 113%; (compound 0.1 µM) 103% and 96.8% and 99.5%; (compound 0.316 µM) 107% and 97.7% and 89%; (compound 1 µM) 95.2% and 98.4% and 113%; (compound 3.16 µM) 96.8% and 100% (2×); (compound 10 µM) 90.8% and 92% and 95.9%. Further, the pIC50 (curve of compound) was less than 5.00.
With `CC(CO)NC(=O)c1cc(-c2ccc(Cl)cc2)nn(-c2cnn(C)c2)c1=O` (stereo not given), the viability, T/C reads like this: (compound 0.316 µM) 96.5% [middle of 21 runs]; (compound 1 µM) 98.8% [middle of 21 runs]; (compound 10 µM) 93.9% [middle of 19 runs]. Further, the negative logarithm of the IC50 (pIC50) (compound alone, run of 08/08/2022) is less than 5.00.
With `CC1COCCN1c1cc(C2(S(C)(=N)=O)CC2)nc(-c2ccnc3[nH]ccc23)n1` (stereo not given), the viability, T/C was 103% and 100% and 97% (compound 0.0316 µM); 107% and 96.4% and 98.6% (compound 0.1 µM); 101% and 104% and 91.9% (compound 0.316 µM); 86.5% and 73.7% and 82.7% (compound 1 µM); 31.6% and 18.2% and 17.2% (compound 3.16 µM); 5.26% and 5.01% and 5.03% (compound 10 µM). Also, the negative-log IC50 (pIC50) (curve of compound) is 5.67 and 5.79 and 5.75.
As for `COc1ccc([C@@H](O)c2cc(-c3ncnc4cc(N5CCOCC5)ccc34)c(F)cc2Cl)nn1`, the viability, T/C is, setting by setting: (compound 0.0316 µM) 94.6% and 87.4% and 102%; (compound 0.1 µM) 106% and 92.4% and 99.4%; (compound 0.316 µM) 89.7% and 96.4% and 93.8%; (compound 1 µM) 92.1% and 84% and 75.6%; (compound 3.16 µM) 72.1% and 75.7% and 68.1%; (compound 10 µM) 46% and 46.8% and 45.7%. Moreover, under “curve of compound”, the pIC50 was 5.07 and 5.06 and 5.09.
For the compound `Cc1ccccc1N=Nc1ccc(NC(=O)c2ccnn2C)c(C)c1`, the viability, T/C (compound 10 µM) was 53.1% [middle of 21 runs].
The term IC50 denotes the point on the concentration scale where inhibition reaches its midpoint. On to `Cc1cncc(-c2nc(NCCc3c[nH]c4ccccc34)c3ncn(C(C)C)c3n2)c1`, for which the viability, T/C is, setting by setting: (compound 0.1 µM) 105% [middle of 20 runs]; (compound 3.16 µM) 60% [middle of 20 runs]; (compound 10 µM) 19.6% [middle of 20 runs]. In addition, where the note is “compound alone, run of 08/16/2022”, the half-maximal inhibitory concentration (IC50) is 4.14 µM [middle of 24 runs].
For the compound `COc1cccc2c1C(=O)c1c(O)c3c(c(O)c1C2=O)CC(O)(C(=O)CO)CC3OC1CC(N)C(O)C(C)O1` (stereo not given) + CC(CO)NC(=O)c1cc(-c2ccc(Cl)cc2)nn(-c2cnn(C)c2)c1=O, the pIC50 is, setting by setting: under setting [1], more than 7.50; under setting [2], more than 7.50; under setting [3], more than 7.50; under setting [4], more than 7.50; under setting [5], more than 7.50. For the same compound, the viability, T/C under setting [6] is 26.3%; the viability, T/C under setting [7] is 15.5%; the viability, T/C under setting [8] was 6.77%; the viability, T/C under setting [9] was 0.48%; the viability, T/C (second compound 0.1 µM, first compound 3.16 µM) was 0.93%; the viability, T/C (second compound 0.1 µM, first compound 10 µM) is 0.78%. Also, the viability, T/C by setting is: under setting [10], 21.1%; under setting [11], 14.9%; under setting [12], 7.09%; under setting [13], 0.26%; (second compound 0.316 µM, first compound 3.16 µM) 1.12%; (second compound 0.316 µM, first compound 10 µM) 0.78%. Further, the viability, T/C runs as follows: under setting [14], 24.6%; under setting [15], 14.6%; under setting [16], 6.76%; under setting [17], 0.2%; (second compound 1 µM, first compound 3.16 µM) 1.11%; (second compound 1 µM, first compound 10 µM) 1.04%. In addition, the viability, T/C is 21.3% under setting [18]; 21.2% under setting [19]; 3.93% under setting [20]; 0.22% under setting [21]; 0.98% (second compound 3.16 µM, first compound 3.16 µM); 0.67% (second compound 3.16 µM, first compound 10 µM). The viability, T/C is 15.4% under setting [22]; 19.3% under setting [23]; 3.22% under setting [24]; 0.46% under setting [25]; 0.54% (second compound 10 µM, first compound 3.16 µM); 0.83% (second compound 10 µM, first compound 10 µM).
As for `Nc1ncn(C2CC(O)C(CO)O2)c(=O)n1` (stereo not given) + CC(CO)NC(=O)c1cc(-c2ccc(Cl)cc2)nn(-c2cnn(C)c2)c1=O, the pIC50 reads like this: under setting [1], 6.10; under setting [2], 6.05; under setting [3], 6.06; under setting [4], less than 6.00; under setting [5], less than 6.00. Besides, the viability, T/C reads like this: (second compound 0.1 µM, first compound 0.00316 µM) 94.9%; (second compound 0.1 µM, first compound 0.01 µM) 94.5%; under setting [6], 85.5%; under setting [7], 89%; under setting [8], 76.3%; under setting [9], 43%. Besides, the viability, T/C (second compound 0.316 µM, first compound 0.00316 µM) was 81.8%; the viability, T/C (second compound 0.316 µM, first compound 0.01 µM) was 88.4%; the viability, T/C under setting [10] is 91.5%; the viability, T/C under setting [11] is 101%; the viability, T/C under setting [12] is 80.8%; the viability, T/C under setting [13] was 46.6%. The viability, T/C is, setting by setting: (second compound 1 µM, first compound 0.00316 µM) 95.4%; (second compound 1 µM, first compound 0.01 µM) 104%; under setting [14], 90.5%; under setting [15], 92.9%; under setting [16], 77.7%; under setting [17], 46%. In addition, the viability, T/C is 97.8% (second compound 3.16 µM, first compound 0.00316 µM); 95% (second compound 3.16 µM, first compound 0.01 µM); 82.7% under setting [18]; 78.8% under setting [19]; 88.9% under setting [20]; 56.4% under setting [21]. Further, the viability, T/C (second compound 10 µM, first compound 0.00316 µM) was 88.9%; the viability, T/C (second compound 10 µM, first compound 0.01 µM) is 92.5%; the viability, T/C under setting [22] was 84.1%; the viability, T/C under setting [23] is 79.7%; the viability, T/C under setting [24] was 82.3%; the viability, T/C under setting [25] was 62.1%.
